Results taken from patent US5869271A, “G-beta-gamma regulated phosphatidylinositol-3' kinase” (Onyx Pharmaceuticals, priority 1997, dated 1999).

How the values were obtained:
[1] = biological target: free p120 PI3K catalytic subunit (Sus scrofa, UniProt O02697); assay: PI3K assay on free recombinant p120 (Sf9-derived); type: biochemical, porcine
Method: Assays contained either 7 nM p101/p120 or 36 nM p120 alone (final concentrations) which were incubated with various reagents; 10 mM NaF and 30 μM AlCl3 (A/F) ; 1 μM Gβγ-subunits (βγ); 2 μM Gα-GDP; 100 nM wortmannin (W) or 50 μM tyrosine phosphorylated peptide (PY) for a total of 15 minutes (at 0° C.) prior to starting the assays by adding [γ^32 P]-ATP; [^32 P]-incorporated into [^32 P]-PtdIns(3,4,5) P3 was quantified. The data shown are means (n=2).
Purified aliquots of Sf9 -derived or pig neutrophil cytosol-derived PI3K were diluted in ice-cold 0.12M NaCl, 25 mM HEPES, 1 mM EGTA, 1 mM DTT, 1 mg-ml^-1 BSA, 1% betaine, 0.02%, w/v, Tween-20, pH 7.4, 0° C. to an appropriate extent, then 5 μl aliquots were stored on ice until assayed. […] 30 μl of a mixture of phospholipids with or without Gβγs and/or Gαs (either GDP-bound or activated) was added to the 5 μl fractions, or 10 μl of beads, and mixed. After 10 minutes on ice, 5-10 μl of last wash buffer, supplemented with MgCl2 to give a final concentration in the extant assay volume of 3.5 mM, was added and mixed. Six minutes later, 5 μl of last wash buffer was added (to give a final assay volume of 50 μl) containing [^32 ]-ATP (typically 10 μCi assay^-1, Amersham, PB10168) and 3.5 mM MgCl2, tubes were mixed and transferred to a 30° C. water bath. […]

[2] = system: Gβγ-activated PI3K (PI3Ks A and B; p117/p101 and p120/p101 heterodimers); assay: PI3K assay on purified pig neutrophil Gβγ-activated PI3Ks A and B; type: biochemical; settings: 100 nM wortmannin; 5 μM ATP in the assays
[3] = biological target: T1, PI3K activity in α-(EE)-p101 immunoprecipitates from U937 cells (Homo sapiens, UniProt P48736); assay: PI3K assay on α-(EE)-p101 immunoprecipitates from transfected U937 cells; type: biochemical
T1 construct: U937 cells (human) contain an endogenous PI3K catalytic subunit; expressed in transfected cells; host or cells: U937 (p101 transfected, catalytic subunit endogenous)
Method: U937 cells were transiently transfected with mammalian expression vectors encoding either (EE)120 or (EE)101, co-transfected in combination with mammalian expression vectors encoding myc101, myc120, or an irrelevant control myc fusion protein, as indicated. A total of 40 μg of vector DNA was used. After co-transfection, the cells lysed, precleaned and immunoprecipitated with protein G sepharose covalently cross-linked to α-(EE) monoclonal antibody as described more fully in the Examples herein. The resulting immunoprecipitates were washed and Gβγ-activated (1 μM, final concentration) PI3K activity was assayed. The PI3K activity detected in immunoprecipitates from cells transfected with irrelevant (EE)-tagged protein, either with or without Gβγs was subtracted from the data shown (these were means of 1896 dpm and 2862 dpm in the absence and presence of Gβγs, respectively).
If the PI3K assays were performed on immunoprecipitates from U937 cells (see following examples) then the PI3K was immobilized on 10 μl of packed protein G Sepharose beads in an ice-cold buffer defined above. 30 μl of a mixture of phospholipids with or without Gβγs and/or Gαs (either GDP-bound or activated) was added to the 5 μl fractions, or 10 μl of beads, and mixed. […]

neutrophils = settings: cited from earlier work

T1 sequence (P48736 whole entry): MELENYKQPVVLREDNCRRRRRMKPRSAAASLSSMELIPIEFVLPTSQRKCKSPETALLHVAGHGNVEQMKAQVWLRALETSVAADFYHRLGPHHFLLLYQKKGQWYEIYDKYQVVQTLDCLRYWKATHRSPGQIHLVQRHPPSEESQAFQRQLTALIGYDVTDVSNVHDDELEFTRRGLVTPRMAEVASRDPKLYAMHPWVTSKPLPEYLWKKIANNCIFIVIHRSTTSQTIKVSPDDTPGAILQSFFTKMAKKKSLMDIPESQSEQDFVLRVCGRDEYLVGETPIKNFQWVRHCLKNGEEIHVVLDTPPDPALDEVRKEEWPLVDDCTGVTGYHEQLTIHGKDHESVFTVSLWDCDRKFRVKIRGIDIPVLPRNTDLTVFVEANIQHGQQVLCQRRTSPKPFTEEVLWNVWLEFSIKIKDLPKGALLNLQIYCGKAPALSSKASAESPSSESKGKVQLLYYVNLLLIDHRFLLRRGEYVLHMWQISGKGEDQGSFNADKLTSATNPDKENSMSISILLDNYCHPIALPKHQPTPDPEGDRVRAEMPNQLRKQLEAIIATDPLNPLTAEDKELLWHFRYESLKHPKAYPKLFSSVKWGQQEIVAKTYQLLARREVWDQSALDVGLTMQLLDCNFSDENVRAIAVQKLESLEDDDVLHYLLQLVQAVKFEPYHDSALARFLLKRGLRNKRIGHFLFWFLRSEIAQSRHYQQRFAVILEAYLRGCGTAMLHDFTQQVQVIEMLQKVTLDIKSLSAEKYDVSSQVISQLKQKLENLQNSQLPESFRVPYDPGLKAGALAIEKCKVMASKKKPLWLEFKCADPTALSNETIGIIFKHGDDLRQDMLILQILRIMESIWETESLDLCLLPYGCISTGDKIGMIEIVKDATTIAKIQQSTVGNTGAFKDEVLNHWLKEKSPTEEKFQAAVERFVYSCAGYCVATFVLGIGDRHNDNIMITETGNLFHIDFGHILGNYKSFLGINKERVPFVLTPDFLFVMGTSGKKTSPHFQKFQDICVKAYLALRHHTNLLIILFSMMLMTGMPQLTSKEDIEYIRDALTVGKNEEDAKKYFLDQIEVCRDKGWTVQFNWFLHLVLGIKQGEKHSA
T1 sequence (as listed by the source partner): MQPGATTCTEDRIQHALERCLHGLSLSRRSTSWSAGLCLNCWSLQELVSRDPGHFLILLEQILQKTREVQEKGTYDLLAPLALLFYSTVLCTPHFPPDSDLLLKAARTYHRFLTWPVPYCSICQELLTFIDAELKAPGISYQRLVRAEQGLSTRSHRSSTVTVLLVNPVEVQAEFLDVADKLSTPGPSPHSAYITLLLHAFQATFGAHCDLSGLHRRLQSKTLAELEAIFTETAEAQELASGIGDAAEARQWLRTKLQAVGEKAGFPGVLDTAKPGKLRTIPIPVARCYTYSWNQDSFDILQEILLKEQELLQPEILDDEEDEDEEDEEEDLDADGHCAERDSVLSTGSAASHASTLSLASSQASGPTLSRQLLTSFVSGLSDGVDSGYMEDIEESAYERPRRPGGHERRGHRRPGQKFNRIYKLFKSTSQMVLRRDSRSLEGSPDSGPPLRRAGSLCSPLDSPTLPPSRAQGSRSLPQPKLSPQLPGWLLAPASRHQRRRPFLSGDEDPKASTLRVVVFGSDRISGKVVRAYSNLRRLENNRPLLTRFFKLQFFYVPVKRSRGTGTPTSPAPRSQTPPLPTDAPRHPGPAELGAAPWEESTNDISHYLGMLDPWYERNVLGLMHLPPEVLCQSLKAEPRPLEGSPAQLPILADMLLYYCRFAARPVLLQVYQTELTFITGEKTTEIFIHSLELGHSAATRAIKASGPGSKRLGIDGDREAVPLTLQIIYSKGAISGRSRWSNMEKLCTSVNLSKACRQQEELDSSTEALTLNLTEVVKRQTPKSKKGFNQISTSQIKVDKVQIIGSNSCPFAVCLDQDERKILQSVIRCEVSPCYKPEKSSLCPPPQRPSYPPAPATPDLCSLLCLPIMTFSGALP
Chain of free p120 PI3K catalytic subunit (O02697 whole entry): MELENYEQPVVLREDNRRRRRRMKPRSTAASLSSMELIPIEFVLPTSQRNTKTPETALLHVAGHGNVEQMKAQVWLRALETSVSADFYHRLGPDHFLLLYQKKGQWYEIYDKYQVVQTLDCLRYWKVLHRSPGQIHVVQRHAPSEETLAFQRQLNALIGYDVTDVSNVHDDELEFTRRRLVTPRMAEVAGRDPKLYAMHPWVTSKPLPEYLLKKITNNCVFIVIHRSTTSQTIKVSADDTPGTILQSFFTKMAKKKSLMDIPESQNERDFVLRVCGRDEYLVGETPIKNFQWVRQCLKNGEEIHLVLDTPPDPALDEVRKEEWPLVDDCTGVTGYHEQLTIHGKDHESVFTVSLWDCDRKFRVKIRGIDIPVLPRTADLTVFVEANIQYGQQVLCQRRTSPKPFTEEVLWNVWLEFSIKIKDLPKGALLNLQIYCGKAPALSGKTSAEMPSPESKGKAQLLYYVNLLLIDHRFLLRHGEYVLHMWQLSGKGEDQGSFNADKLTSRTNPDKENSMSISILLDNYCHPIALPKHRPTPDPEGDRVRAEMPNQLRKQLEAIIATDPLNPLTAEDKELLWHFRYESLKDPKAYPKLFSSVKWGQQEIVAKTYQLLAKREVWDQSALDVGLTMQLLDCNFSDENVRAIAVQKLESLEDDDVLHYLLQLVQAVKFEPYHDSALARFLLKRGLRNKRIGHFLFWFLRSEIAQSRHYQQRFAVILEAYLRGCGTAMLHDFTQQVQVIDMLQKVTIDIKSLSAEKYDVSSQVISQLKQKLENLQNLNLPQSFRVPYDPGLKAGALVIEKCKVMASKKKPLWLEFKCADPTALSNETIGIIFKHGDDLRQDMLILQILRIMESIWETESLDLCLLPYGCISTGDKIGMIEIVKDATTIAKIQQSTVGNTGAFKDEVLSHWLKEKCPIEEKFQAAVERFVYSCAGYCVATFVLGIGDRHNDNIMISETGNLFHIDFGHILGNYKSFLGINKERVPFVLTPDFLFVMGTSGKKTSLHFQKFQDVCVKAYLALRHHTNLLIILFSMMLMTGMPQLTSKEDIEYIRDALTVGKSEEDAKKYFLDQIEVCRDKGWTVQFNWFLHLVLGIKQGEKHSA

COC[C@H]1OC(=O)c2coc3c2[C@@]1(C)C1=C(C3=O)[C@@H]2CCC(=O)[C@@]2(C)C[C@H]1OC(C)=O [wortmannin]
wortmannin sensitivity of free p120 PI3K activity [1]: wortmannin-sensitive | inhibition of PI3K activity by wortmannin [2]: completely inhibited | wortmannin sensitivity of PI3K activity in α-(EE)-p101 immunoprecipitates [3]: wortmannin-sensitive | fMLP-induced respiratory burst response (neutrophils; Thelen et al., 1994): prevents | superoxide production in neutrophils (neutrophils): shutdown of superoxide production
